Experimental data as given in patent publication US9694016B2 (Novartis AG, priority 2013, dated 2017).

Target: T1, b-Raf (V600E) (Homo sapiens (Human), UniProt P15056, V600E)
Experiment: not given
Conditions: read-out: b-Raf IC-50; AlphaScreen, 60 min pre-incubation, 3 hours reaction

T1 sequence (P15056 whole entry V600E): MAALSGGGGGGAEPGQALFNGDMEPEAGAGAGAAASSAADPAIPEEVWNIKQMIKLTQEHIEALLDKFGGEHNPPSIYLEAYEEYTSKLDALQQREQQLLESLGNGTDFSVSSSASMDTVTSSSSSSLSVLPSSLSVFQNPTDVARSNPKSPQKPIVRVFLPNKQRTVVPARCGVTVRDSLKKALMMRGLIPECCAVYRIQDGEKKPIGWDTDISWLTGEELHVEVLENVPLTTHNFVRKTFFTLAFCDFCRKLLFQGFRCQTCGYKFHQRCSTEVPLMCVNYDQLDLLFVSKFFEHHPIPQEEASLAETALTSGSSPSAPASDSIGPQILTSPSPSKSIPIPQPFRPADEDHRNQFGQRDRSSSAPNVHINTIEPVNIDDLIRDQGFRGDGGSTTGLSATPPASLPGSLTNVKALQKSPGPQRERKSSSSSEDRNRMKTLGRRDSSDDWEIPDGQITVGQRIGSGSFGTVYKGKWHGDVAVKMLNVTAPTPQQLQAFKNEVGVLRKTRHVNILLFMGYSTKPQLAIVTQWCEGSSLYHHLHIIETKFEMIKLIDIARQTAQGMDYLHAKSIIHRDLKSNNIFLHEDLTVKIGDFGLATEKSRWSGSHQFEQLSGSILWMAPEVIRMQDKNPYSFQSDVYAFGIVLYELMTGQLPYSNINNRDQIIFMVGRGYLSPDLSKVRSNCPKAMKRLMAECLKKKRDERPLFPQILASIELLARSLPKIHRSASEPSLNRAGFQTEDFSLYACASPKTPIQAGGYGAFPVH

IC50 [nM]	SMILES
2.9	CCNc1nc(-c2cc(NC(=O)c3ccnc(C(C)(C)C#N)c3)ccc2C)cc(N2CCOCC2)n1 [Example 717, 2-(2-cyanopropan-2-yl)-N-(3-(2-(ethylamino)-6-morpholinopyrimidin-4-yl)-4-methylphenyl)isonicotinamide]

Same assay, conditions: read-out: b-Raf IC-50; AlphaScreen, 60 min pre-incubation, reaction 3 hours at room temperature

IC50 [nM]	SMILES
2.36	Cc1ccc(NC(=O)c2ccnc(C(C)(C)F)c2)cc1-c1cnc(OC(C)C)c(N2CCOCC2)c1 [Example 946, 2-(2-fluoropropan-2-yl)-N-(3-(6-isopropoxy-5-morpholinopyridin-3-yl)-4-methylphenyl)isonicotinamide]

Same assay, conditions: read-out: b-Raf IC-50; Table 2; AlphaScreen, 3 hours reaction

IC50 [nM]	SMILES
2.1	Cc1ccc(C(=O)Nc2cccc(C(F)(F)F)c2)cc1-c1ccnc(N2CCOCC2)c1 [Example 63, 4-Methyl-3-(2-morpholinopyridin-4-yl)-N-(3-(trifluoromethyl)phenyl)benzamide]
0.7	Cc1ccc(NC(=O)c2cccc(C(F)(F)F)c2)cc1-c1cncc(N2CCOCC2)n1 [Example 118, N-(4-methyl-3-(6-morpholinopyrazin-2-yl)phenyl)-3-(trifluoromethyl)benzamide]
3.6	Cc1ccc(NC(=O)c2cccc(C(F)(F)F)c2)cc1-c1csc(N2CCOCC2)n1 [Example 199, N-(4-methyl-3-(2-morpholinothiazol-4-yl)phenyl)-3-(trifluoromethyl)benzamide]
0.4	Cc1ccc(NC(=O)c2cccc(C(F)(F)F)c2)cc1-c1cn(C)c(=O)c(N2CCOCC2)n1 [Example 119, N-(4-methyl-3-(4-methyl-6-morpholino-5-oxo-4,5-dihydropyrazin-2-yl)phenyl)-3-(trifluoromethyl)benzamide]
2.9	Cc1ccc(NC(=O)c2cnnc(C3CC3)c2)cc1-c1cc(N2CCOCC2)c(=O)n(C)c1 [Example 362, 6-cyclopropyl-N-(4-methyl-3-(1-methyl-5-morpholino-6-oxo-1,6-dihydropyridin-3-yl)phenyl)pyridazine-4-carboxamide]

Target: T1, b-Raf (V600E)
Experiment: biochemical
Conditions: not given

IC50 [nM]	SMILES
0.6	Cc1ccc(NC(=O)c2cnnc(C(F)(F)F)c2)cc1-c1cc(N2CCOCC2)c(OC2CCOCC2)nn1 [Example 577, N-(4-methyl-3-(5-morpholino-6-((tetrahydro-2H-pyran-4-yl)oxy)pyridazin-3-yl)phenyl)-6-(trifluoromethyl)pyridazine-4-carboxamide]
0.9	CCOc1nnc(-c2cc(NC(=O)c3cccc(S(C)(=O)=O)c3)ccc2C)cc1N1CCOCC1 [Example 559, N-(3-(6-ethoxy-5-morpholinopyridazin-3-yl)-4-methylphenyl)-3-(methylsulfonyl)benzamide]
3.7	Cc1ccc(NC(=O)c2ccc(CO)c(C(F)(F)F)c2)cc1-c1cc(N2CCOCC2)c(=O)n(C)c1 [Example 462, 4-(hydroxymethyl)-N-(4-methyl-3-(1-methyl-5-morpholino-6-oxo-1,6-dihydropyridin-3-yl)phenyl)-3-(trifluoromethyl)benzamide]
0.62	Cc1ccc(NC(=O)c2ccnc(C(C)(F)F)c2)cc1-c1ccnc(N2CCOCC2)c1 [Example 1137, 2-(1,1-difluoroethyl)-N-(4-methyl-3-(2-morpholinopyridin-4-yl)phenyl)isonicotinamide]
0.6	Cc1ccc(NC(=O)c2cccc(C(F)(F)F)c2)cc1-c1nc2c(c(N3CCOCC3)n1)CCNC2 [Example 834, N-(4-methyl-3-(4-morpholino-5,6,7,8-tetrahydropyrido[3,4-d]pyrimidin-2-yl)phenyl)-3-(trifluoromethyl)benzamide]
3.1	Cc1ccc(NC(=O)c2cc(CO)cc(C(F)(F)F)c2)cc1-c1cc(N2CCOCC2)c(=O)n(C)c1 [Example 469, 3-(hydroxymethyl)-N-(4-methyl-3-(1-methyl-5-morpholino-6-oxo-1,6-dihydropyridin-3-yl)phenyl)-5-(trifluoromethyl)benzamide]
7.7	Cc1ccc(NC(=O)c2cccc(-c3nnco3)c2)cc1-c1cc2[nH]cnc2c(N2CCOCC2)n1 [Example 822, N-(4-methyl-3-(4-morpholino-1H-imidazo[4,5-c]pyridin-6-yl)phenyl)-3-(1,3,4-oxadiazol-2-yl)benzamide]
18.4	Cc1ccc(NC(=O)c2cc(C3CC3)nn2C)cc1-c1cc2[nH]cnc2c(N2CCOCC2)n1 [Example 818, 3-cyclopropyl-1-methyl-N-(4-methyl-3-(4-morpholino-1H-imidazo[4,5-c]pyridin-6-yl)phenyl)-1H-pyrazole-5-carboxamide]
2.6	Cc1ncc(NC(=O)c2cccc(C(F)(F)F)c2)cc1-c1cnc(O[C@H](C)CO)c(N2CCOCC2)c1 [Example 1021, (R)—N-(6′-((1-hydroxypropan-2-yl)oxy)-2-methyl-5′-morpholino-[3,3′-bipyridin]-5-yl)-3-(trifluoromethyl)benzamide]
100	Cc1ccc(NC(=O)c2cn(C)nc2C)cc1-c1cc2[nH]cnc2c(N2CCOCC2)n1 [Example 815, 1,3-dimethyl-N-(4-methyl-3-(4-morpholino-1H-imidazo[4,5-c]pyridin-6-yl)phenyl)-1H-pyrazole-4-carboxamide]
1.49	Cc1ncc(NC(=O)c2cccc(C(F)(F)F)c2)cc1-c1cnc(OC[C@H](C)O)c(N2CCOCC2)c1 [Example 1022, (S)—N-(6′-(2-hydroxypropoxy)-2-methyl-5′-morpholino-[3,3′-bipyridin]-5-yl)-3-(trifluoromethyl)benzamide]
1	Cc1ccc(NC(=O)c2ccnc(C(C)(F)F)c2)cc1-c1cc(N2CCOCC2)n(C)c(=O)c1 [Example 471, 2-(1,1-difluoroethyl)-N-(4-methyl-3-(1-methyl-6-morpholino-2-oxo-1,2-dihydropyridin-4-yl)phenyl)isonicotinamide]
4	CCNc1nc(-c2cc(C(=O)Nc3cccc(C(F)(F)F)c3)ccc2C)cc(N2CCOCC2)n1 [Example 710, 3-(2-(ethylamino)-6-morpholinopyrimidin-4-yl)-4-methyl-N-(3-(trifluoromethyl)phenyl)benzamide]
200	Cc1cc(C(=O)Nc2ccc(C)c(-c3cc4[nH]cnc4c(N4CCOCC4)n3)c2)n(C)n1 [Example 817, 1,3-dimethyl-N-(4-methyl-3-(4-morpholino-1H-imidazo[4,5-c]pyridin-6-yl)phenyl)-1H-pyrazole-5-carboxamide]
1.3	Cc1ccc(NC(=O)c2ccnc(C(C)(C)C#N)c2)cc1-c1cc(N2CCOCC2)c(OC(C)C)nn1 [Example 596, 2-(2-cyanopropan-2-yl)-N-(3-(6-isopropoxy-5-morpholinopyridazin-3-yl)-4-methylphenyl)isonicotinamide]
9.4	Cc1ccc(NC(=O)c2ccnc(C(C)(C)O)c2)cc1-c1cc2[nH]cnc2c(N2CCOCC2)n1 [Example 823, 2(2-hydroxypropan-2-yl)-N-(4-methyl-3-(4-morpholino-1H-imidazo[4,5-c]pyridin-6-yl)phenyl)isonicotinamide]
17.4	Cc1ccc(NC(=O)c2cn(C(C)C)nc2C)cc1-c1cc2[nH]cnc2c(N2CCOCC2)n1 [Example 816, 1-isopropyl-3-methyl-N-(4-methyl-3-(4-morpholino-1H-imidazo[4,5-c]pyridin-6-yl)phenyl)-1H-pyrazole-4-carboxamide]
3.7	Cc1ncc(NC(=O)c2cccc(C(F)(F)F)c2)cc1-c1cc(N2CCOCC2)nc(NC[C@@H](C)O)n1 [Example 743, (R)—N-(5-(2-((2-hydroxypropyl)amino)-6-morpholinopyrimidin-4-yl)-6-methylpyridin-3-yl)-3-(trifluoromethyl)benzamide]
1.4	Cc1ccc(NC(=O)c2cc(C3CC3)on2)cc1-c1cc2[nH]cnc2c(N2CCOCC2)n1 [Example 820, 5-cyclopropyl-N-(4-methyl-3-(4-morpholino-1H-imidazo[4,5-c]pyridin-6-yl)phenyl)isoxazole-3-carboxamide]

SMILES	IC50 [nM]
CNCc1ccc(C(=O)Nc2ccc(C)c(-c3cc(N4CCOCC4)c4nccn4c3)c2)cc1C(F)(F)F [Example 853, N-(4-methyl-3-(8-morpholinoimidazo[1,2-a]pyridin-6-yl)phenyl)-4-((methylamino)methyl)-3-(trifluoromethyl)benzamide]	2.4
CNCc1ccc(C(=O)Nc2cnc(C)c(-c3cc(N4CCOCC4)c4nccn4c3)c2)cc1C(F)(F)F [Example 885, N-(6-methyl-5-(8-morpholinoimidazo[1,2-a]pyridin-6-yl)pyridin-3-yl)-4-((methylamino)methyl)-3-(trifluoromethyl)benzamide]	12.3
CCOc1ncc(-c2cc(C(=O)Nc3cccc(C(C)(C)O)c3)ccc2C)cc1N1CCOCC1 [Example 236, 3-(6-ethoxy-5-morpholinopyridin-3-yl)-N-(3-(2-hydroxypropan-2-yl)phenyl)-4-methylbenzamide]	1.6
CCn1cc(C(=O)Nc2ccc(C)c(-c3cc4[nH]cnc4c(N4CCOCC4)n3)c2)c(C)n1 [Example 814, 1-ethyl-3-methyl-N-(4-methyl-3-(4-morpholino-1H-imidazo[4,5-c]pyridin-6-yl)phenyl)-1H-pyrazole-4-carboxamide]	32.1
Cc1ccc(C(=O)Nc2ccc(CN)c(C(F)(F)F)c2)cc1-c1cc(N2CCOCC2)c(=O)n(C)c1 [Example 467, N-(4-(aminomethyl)-3-(trifluoromethyl)phenyl)-4-methyl-3-(1-methyl-5-morpholino-6-oxo-1,6-dihydropyridin-3-yl)benzamide]	12.1

Target: C-Raf TR (truncated C-Raf protein, Δ1-324 deletion mutant) (Homo sapiens (Human), UniProt P04049)
Experiment: not given
Type: biochemical
Conditions: truncated C-Raf approximately 4 nM, ATP 1 uM, 60 min pre-incubation, 1 hour reaction
Description: biotinylated Mek, kinase dead
biotinylated Mek, Kinase dead approximately 10 nM

IC50 [nM]	SMILES
0.508	Cc1ccc(C(=O)Nc2cccc(C(F)(F)F)c2)cc1-c1ccnc(N2CCOCC2)c1 [Example 63, 4-Methyl-3-(2-morpholinopyridin-4-yl)-N-(3-(trifluoromethyl)phenyl)benzamide]
0.308	Cc1ccc(NC(=O)c2cccc(C(F)(F)F)c2)cc1-c1cncc(N2CCOCC2)n1 [Example 118, N-(4-methyl-3-(6-morpholinopyrazin-2-yl)phenyl)-3-(trifluoromethyl)benzamide]
1.29	Cc1ccc(NC(=O)c2cccc(C(F)(F)F)c2)cc1-c1csc(N2CCOCC2)n1 [Example 199, N-(4-methyl-3-(2-morpholinothiazol-4-yl)phenyl)-3-(trifluoromethyl)benzamide]
0.803	Cc1ccc(C(=O)Nc2cccc(C(F)(F)F)c2)cc1-c1nc(N2CCOCC2)cc(N2CCOCC2)n1 [Example 14, 3-(4,6-dimorpholinopyrimidin-2-yl)-4-methyl-N-(3-(trifluoromethyl)phenyl)benzamide]
0.27	Cc1ccc(NC(=O)c2cccc(C(F)(F)F)c2)cc1-c1cn(C)c(=O)c(N2CCOCC2)n1 [Example 119, N-(4-methyl-3-(4-methyl-6-morpholino-5-oxo-4,5-dihydropyrazin-2-yl)phenyl)-3-(trifluoromethyl)benzamide]
